Results taken from patent publication US8609725B2, “Method of using beta-hydroxy-beta-methylbutyrate for reducing tumor growth rate” (Abbott Laboratories, priority 2004, dated 2013).

How the values were obtained:
rats and chicks = settings: cited from earlier work
[1] = test system: MSS1, an ATPase subunit of the 19S proteasome regulatory complex; assay: Western blotting of MSS1 in gastrocnemius muscle of MAC16 mice; assay type: in vivo, NMRI mice
[2] = test system: p42, ATPase subunit of the 19S regulator; assay: Western blotting of p42 in gastrocnemius muscle of MAC16 mice; assay type: in vivo, NMRI mice
PKCα = target: T1, PKCα (Mus musculus, UniProt P20444); assay: PIF-stimulated translocation of PKCα from cytoplasm to plasma membrane in murine myotubes; assay type: cell-based
T1 construct: PIF stimulates translocation of PKCα from the cytoplasm to the plasma membrane; endogenous in cells; host or cells: murine myotubes (C2C12)
Procedure: (§1) For Western blot analysis, cytosolic protein (2 to 5 μg) obtained for the above assay were resolved on 10% SDS-PAGE and transferred to 0.45 μm nitrocellulose membrane, which had been blocked with 5% Marvel in PBS, at 4° C. overnight. The primary antibodies were used at a dilution of 1:100 (anti-actin and PKCα); 1:500 (anti-ERK1 and 2); 1:1000 (anti-20S proteasome β-subunit and I-κBα); 1:1500 (anti-20S proteasome α-subunit) or 1:5000 (anti-p42), while the secondary antibodies were used at a dilution of 1:2000. Incubation was carried out for 2 h at room temperature and development was by ECL. Loading was quantitated by actin concentration.
The in vitro study described in Example III above also evaluated the effect of HMB on molecules that are key mediators in the pathway of inflammation. This experiment was conducted as described in Example III.

I-κBα = assay: PIF-induced degradation of I-κBα in murine myotubes; assay type: cell-based; settings: 50 μM HMB
Procedure: as §1, with “concentration. The in vitro study described in Example III above also evaluated the effect of HMB on molecules that are key mediators in the pathway of inflammation. This experiment was conducted as described in Example III.” for “concentration.”

[3] = test system: soleus muscle of mice bearing the MAC16 tumor; assay: Soleus muscle weight and protein degradation (tyrosine release) in MAC16 mice; assay type: in vivo, NMRI mice; settings: EPA 0.6 g/kg, HMB 0.25 g/kg or the combination for 3 days
Text: Pure strain male NMRI mice (average weight 25 g) were obtained from our own inbred colony and were transplanted with fragments of the MAC16 tumor s.c. into the flank by means of a trochar, selecting from donor animals with established weight loss as described in Bibby, M. C. et al. Characterization of a transplantable adenocarcinoma of the mouse colon producing cachexia in recipient animals. J. Natl. Cancer Inst., 78: 539-546, 1987. Transplanted animals were fed a rat and mouse breeding diet (Special Diet Services, Witham, United Kingdom) and water ad libitum, and weight loss was evident 10-12 days after tumor implantation. Animals just prior to the development of weight loss were randomized to receive daily either EPA (in olive oil), HMB (in PBS) or the combination as described in the figure legends administered p.o. by gavage, while control animals received either olive oil or PBS. EPA (98% as free acid) was purchased from Biomol Research Laboratories Inc., PA, USA. HMB (as the calcium salt) was obtained from Abbott Laboratories, Columbus, Ohio, USA. All groups contained a minimum of 6 mice. Tumor volume, body weight and food and water intake were monitored daily. […] Protein degradation was determined by the release of tyrosine over a 2 h period as described in […]. et al. A fluorimetric method for the estimation of tyrosine in plasma and tissues. […]

[4] = test system: proteasome 20S α subunits, β subunits and p42; assay: Western blot of PIF-induced proteasome subunit expression in C2C12 myotubes; assay type: cell-based, murine; settings: 50 μM; PIF at 4.2 and 10 nM
Procedure: as §1

NF-κB = NF-κB nuclear accumulation / binding to DNA (EMSA) in murine myotubes; assay type: cell-based
Procedure: DNA binding proteins were extracted from myotubes by the method of Andrews, N. C. et al. A rapid micropreparation technique for extraction of DNA-binding proteins from limiting numbers of mammalian cells. Nucleic Acids Res., 19: 2499, 1991, which utilizes hypotonic lysis followed by high salt extraction of nuclei. The EMSA (electrophoretic mobility shift assay) binding assay was carried out according to the manufacturer's instructions. The in vitro study described in Example III above also evaluated the effect of HMB on molecules that are key mediators in the pathway of inflammation. This experiment was conducted as described in Example III.

[5] = test system: 20S proteasome α-subunits; assay: Western blotting of 20S proteasome α-subunits in gastrocnemius muscle of MAC16 mice; assay type: in vivo, NMRI mice
[6] = avg., 1996 abstract, normal rats and chicks
[7] = HMB 0.25 g/kg, EPA 0.6 g/kg or combination, 3 days

CC(C)(O)CC(=O)O [HMB, beta-hydroxy-beta-methylbutyric acid]
change of protein breakdown (rats and chicks; [6]): −18% | stimulation of protein synthesis (rats and chicks; [6]): 6% | effect on protein synthesis (rats and chicks; later paper (2000), same model in rats and chicks): no significant effect | expression of MSS1 [1, 7]: attenuated | reduction of protein expression of MSS1 ([1]; summary of Examples I-IV): at least 50% | expression of p42 [2, 7]: equally effective | reduction of protein expression of p42 ([2]; summary of Examples I-IV): at least 50% | attenuation of PIF-stimulated translocation of PKCα (PKCα; 25 μM HMB): less effective | attenuation of PIF-stimulated translocation of PKCα (PKCα; 50 μM): effectively attenuated | attenuation of I-κBα degradation in the presence of PIF (I-κBα): effectively attenuate | tyrosine release (total protein degradation in soleus muscle) [3]: as effective as EPA | attenuation of PIF-increased expression of proteasome 20S α subunits, β subunits and p42 [4]: attenuated | inhibition of binding of NF-κB to DNA (NF-κB; 25 μM HMB): Only partial inhibition | nuclear accumulation of NF-κB (NF-κB; 50 μM HMB): prevent nuclear accumulation of NF-κB | expression of 20S proteasome α-subunits [5, 7]: attenuated | reduction of protein expression of 20S α-subunits ([5]; summary of Examples I-IV): at least 50%
